From article PMC5884906, “Single Administration of HBK-15—a Triple 5-HT1A, 5-HT7, and 5-HT3 Receptor Antagonist—Reverses Depressive-Like Behaviors in Mouse Model of Depression Induced by Corticosterone” (Molecular Neurobiology, 2017)
pIC50: −log10 of the molar value. “And” between values parts separate entries of the source, which are not always exact repeats. Equal values may be shown once. Read-outs that look alike come from different tables or passages of the source.

What was measured:
[1] = cited from earlier work
[2] = cited from earlier work; for effect on blood pressure after chronic treatment: antidepressant- and anxiolytic-like doses
[3] = tested on: corticosterone-treated mice; experiment: elevated plus maze, chronic administration, corticosterone model; format: in vivo
Experimental: The doses and route of administration of the studied compounds were based on our previous experiments. […] Mice were injected with corticosterone (s.c., 20 mg/kg) at random times during the light phase for 21 consecutive days (Fig. 1b). The dose and route of administration of corticosterone was based on studies performed by Zhao and colleagues. Thirty minutes before, corticosterone injection mice were given (i.p.) saline, HBK-14 (1.25 or 2.5 mg/kg), HBK-15 (0.625 or 1.25 mg/kg), or fluoxetine (10 mg/kg) (Fig. 1b). Control mice received (i.p.) saline and 30 min later saline containing 0.1% dimethyl sulfoxide (DMSO) and 0.1% Tween-80 (s.c.). The experimental groups consisted of eight randomly selected animals. After the end of the procedure, animals were tested in the sucrose preference test, forced swim test, elevated plus maze test, and spontaneous locomotor activity test. Following behavioral testing, rodents were scarified and their hippocampi collected for biochemical analysis. The elevated plus maze was performed according to the method previously described. […] Each mouse was individually placed at the central field of the apparatus with the head turned toward one of the closed arms. […] The device was disinfected with 70% ethanol after each mouse. The number of entries to open and closed arms and time spent in the open and closed arms were measured. The experiments were recorded and scored using aLab.io software by a trained observer blind to the treatments.

[4] = cited from earlier work; remark: listed apart in the source
5-HT7 receptor = target: 5-HT7 receptor; parameters: method as in PMID 26554929; conditions: previous experiments; read-out: 5-HT7 receptor antagonist IC50; cited from earlier work
[5] = distribution to brain after i.v. and i.p. administration; format: in vivo, mice; conditions: for Kp: brain and plasma, HBK-14 2.5 mg/kg, HBK-15 1.25 mg/kg, read-out: brain/plasma ratio
Experimental: For pharmacokinetic study, HBK-14 and HBK-15 dissolved in saline were administered by an intravenous (i.v.) and intraperitoneal (i.p.) administration at a dose of 2.5 and 1.25 mg/kg, respectively. Blood samples were collected at 0 min (predose), 5 min, 15 min, 30 min, 60 min, 120 min, and 240 min after compounds administration. The blood and brain samples were collected under general anesthesia induced by i.p. injections of 50 mg/kg ketamine plus 8 mg/kg xylazine. Blood samples were collected into heparinized tubes. The samples were immediately centrifuged at 3500 rpm for 10 min, and plasma was collected. The brain and plasma samples were immediately frozen at −80 °C for further analysis.
The quantification of studied compounds in plasma and brain samples was accomplished using UFLC Nexera system (Shimadzu, Kyoto, Japan) coupled to the triple quadrupole mass spectrometer QTrap 5500 (Sciex, Framingham, MA, USA) equipped with Turbo V™ ion source. After preparation, the samples were injected (5 μL) onto Acquity UPLC BEH C18 (3.0 × 100 mm, 1.7 μm, Waters, Milford, MA, USA) analytical column. The mobile phases that consisted of ACN with 0.1% FA (A) and water with 0.1% FA (B) were delivered in isocratic elution mode (40% A, 60% B) at the flow rate of 550 μL/min. The total time of analysis was 8 min including 2 min of column equilibration.
An amount of 50 μL of sample (plasma or brain homogenate) was transferred into the clean Eppendorf tube and spiked with 5 μL of internal standard solution (IS, 1 μg/mL) obtaining the final concentration of 100 ng/mL. After 5 min of mixing (1500 rpm), proteins were precipitated using 150 μL ACN. After 10 min of samples shaking (1500 rpm), the incubation step was performed (10 min, 4 °C). Next, samples were centrifuged (10,000 rpm, 10 min, 4 °C) and the supernatant was transferred into chromatographic vial for LC/MS/MS analysis.
The brain homogenate was prepared maintaining the tissue: phosphate-buffered saline (PBS) ratio at 1:5. The homogenization was carried out employing IKA® T10 Basic ULTRA-TURRAX disperser (IKA Werke GmbH & Co. KG, Staufen, Germany). After homogenization, all samples were centrifuged (3000 rpm, 10 min, 4 °C) and 50 μL of supernatant was collected for further preparation. All samples were stored on ice during the preparation process.

[6] = tested on: corticosterone-treated mice; experiment: spontaneous locomotor activity, single administration; format: in vivo; conditions: 4 min
Experimental: Mice were injected with corticosterone (s.c., 20 mg/kg) at random times during the light phase for consecutive 21 days (Fig. 1c). The dose and route of administration of corticosterone were based on studies performed by Zhao and colleagues. […] Control mice received (i.p.) saline. The experimental groups consisted of eight randomly selected animals. We chose the dose of HBK-15 that was active in the chronic experiments (i.e., 1.25 mg/kg). The dose of ketamine was based on the studies performed by Pazini and colleagues. Animals were tested in the forced swim test and spontaneous locomotor activity test. After behavioral testing, mice were scarified and their hippocampi collected for biochemical analysis.
The locomotor activity was performed as previously described. Locomotor activity was recorded individually for each mouse using activity cages made of clear Perspex (40 cm × 40 cm × 31 cm, Activity Cage 7441, Ugo Basile, Italy). The cages were supplied with I.R. horizontal beam emitters connected to a counter for the recording of light-beam interruptions. Each mouse was placed in a cage for a 30-min habituation period. After that time, the number of crossings of photobeams was measured for 6 min (chronic studies) or for 4 min (acute experiments; i.e., the time equal to the observation period in the forced swim test). The cages were disinfected with 70% ethanol after each mouse.

[7] = mouse, other: intravenous and intraperitoneal (both arms), after i.v. and i.p. administration
[8] = corticosterone 20 mg/kg s.c. 21 days + saline

| SMILES | antihistaminic activity [1] | effect on blood pressure after chronic treatment [2] | effect on corticosterone-induced decrease in number of open arm entries ([3]; 2.5 mg/kg i.p., 21 days) | effect on corticosterone-induced decrease in time spent in the open arms ([3]; 2.5 mg/kg i.p., 21 days) | number of open arms entries compared with fluoxetine ([3]; 2.5 mg/kg i.p., 21 days, vs fluoxetine 10 mg/kg) | cholinolytic activity [4] | pIC50 (5-HT7 receptor) | Kp ([5]; CD-1, mouse, ip) | Kp ([5]; CD-1, mouse, iv) | Kp [5, 7] | Number of crossings ± S.E.M ([6]; single 1.25 mg/kg i.p. in corticosterone-treated mice) | hypotensive activity after single administration [2] | Tmax ([5]; CD-1, mouse, brain, ip, 1.25 mg/kg, read-out: time of maximal concentration in the brain (converted)) [min] | Number of crossings ± S.E.M [6, 8] | decrease in open arm entries vs control [3, 8] | decrease in time spent in the open arms vs control [3, 8] [%] | Number of crossings ± S.E.M ([6]; single i.p. in corticosterone-treated mice) | effect on corticosterone-induced decrease in number of open arm entries ([3]; 10 mg/kg i.p., 21 days) | effect on corticosterone-induced decrease in time spent in the open arms ([3]; 10 mg/kg i.p., 21 days) |
| --- | --- | --- | --- | --- | --- | --- | --- | --- | --- | --- | --- | --- | --- | --- | --- | --- | --- | --- | --- |
| COc1ccccc1N1CCN(CCOCCOc2c(C)cccc2C)CC1.Cl [HBK-14, 1-[(2,6-Dimethylphenoxy)ethoxyethyl]-4-(2-methoxyphenyl)piperazine hydrochloride] | negligible | neither HBK-14 nor HBK-15 lowered blood pressure | prevented the decreases | prevented the decreases in the time spent in the open arms | significantly increased | negligible | 7.11 | 0.46 | 0.8 | < 1 |  |  |  |  |  |  |  |  |  |
| COc1ccccc1N1CCN(CCOCCOc2c(C)cccc2Cl)CC1.Cl [HBK-15, 1-[(2-chloro-6-methylphenoxy)ethoxyethyl]-4-(2-methoxyphenyl)piperazine hydrochloride] | negligible | neither HBK-14 nor HBK-15 lowered blood pressure | prevented the decreases | prevented the decreases in the time spent in the open arms |  | negligible | 6.66 | 0.27 | 0.68 | < 1 | 245.3 ± 22.5 | did not exhibit hypotensive activity | 5 |  |  |  |  |  |  |
| C[C@]12C[C@H](O)[C@H]3[C@@H](CCC4=CC(=O)CC[C@@]43C)[C@@H]1CC[C@@H]2C(=O)CO [corticosterone] |  |  |  |  |  |  |  |  |  |  |  |  |  | 230.7 ± 15.8 | 56% and 48% | 48 |  |  |  |
| CNCCC(Oc1ccc(C(F)(F)F)cc1)c1ccccc1 (stereo not shown) [fluoxetine, reference compound] |  |  |  |  |  |  |  |  |  |  |  |  |  |  |  |  | 231.9 ± 21.9 | prevented the decreases | prevented the decreases in the time spent in the open arms |
